Results on 5 molecules are retold here after patent publication US9567331B2 (priority 2011, dated 2017).

Molecules are shown by their SMILES.

In data set [1] the test system is wild-type vaccinia strain Western Reserve. The format is cell-based.
Data set [2] relates to HIV/Lai. In words: microbe, parasite or virus in culture. The format is cell-based. The settings on record: Human immunodeficiency virus 1, TZM-bl, read-out: IC50, inhibition of HIV.
In data set [3] the test system is TrpV reporter virus. Format: cell-based.
Data set [4] deals with late Venus; LV virus (Venus under control of the late F17R promoter). Format: cell-based, vaccinia strain Western Reserve.
Data set [5] concerns A549 and HeLa cells.
Data set [6] relates to cellular and viral protein synthesis.
Data set [7] concerns LV virus late reporter expression. Format: cell-based, vaccinia strain Western Reserve.
The test system of data set [8] is vaccinia virus strain IHDJ. The format is cell-based.
Data set [9] concerns LREV virus (late red early Venus reporter vaccinia virus). The format is cell-based.
In data set [10] the test system is EV, IV and LV reporter viruses. The format is cell-based.
Data set [11] deals with EV, IV and LV reporter mRNA. Format: cell-based, vaccinia strain Western Reserve.
In data set [12] the test system is monkeypox Zaire 1979 (MPDX). Format: cell-based.
Data set [13] concerns LV virus / LR virus in A549 cells. The format is cell-based, vaccinia strain Western Reserve.
For data set [14], the system named is cowpox Brighton red (CPX). Format: cell-based.
Data set [15] concerns viral DNA replication (LV virus). The format is cell-based.
The test system of data set [16] is vaccinia virus. Format: cell-based.

As for `Nc1ccn([C@@H]2O[C@H](CO)[C@@H](O)[C@@H]2O)c(=O)n1` [AraC], the “virus yield reduction, single-cycle” value in data set [1] worked out at 3.5 log.
As to `CC(=O)C1=C2C=CCCN2C(=O)N[C@H]1c1ccccc1` [CMLDBU6128, 4-acetyl-2,3,7,8-tetrahydro-3-phenylpyrido[1,2-f]pyrimidin-1-one], the IC50 in data set [2] is roughly 20 µM. Moreover, in data set [3], the “early Venus expression (TrpV)” value is “no detectable effect”; the “mCherry and late TagBFP expression (TrpV)” value is “reduced mCherry and late TagBFP expression uniformly”. In data set [4] (read-out: IC50 for LV reporter expression), the IC50 was roughly 5.3 µM. In addition, the IC90 in [4] (read-out: IC90 for LV reporter expression) is roughly 10.4 µM. Further, the “cytotoxicity of screening hit” value in data set [5] was “not cytotoxic”. The cell cytotoxicity entry in data set [5] (24 h) is “little to no cell cytotoxicity”. In data set [6], the “cellular protein synthesis in mock-infected cells” value is reported as “unaffected” and the viral protein synthesis entry is given as “globally reduced”. Also, in data set [7], the “reporter expression after drug removal” value is “drug removal did not result in a restart of reporter expression” and the “time to flattening of late reporter expression after addition to an unimpeded 10 h infection” value is no more than 2 h. The same molecule gave a viral yield reduction in [8] of 2.4 log. Also, the “virus yield reduction, single-cycle” value in [1] was 3.6 log. Moreover, the “antiviral activity of screening hit” value in [9] is “strongly antiviral”. Moreover, in data set [10], the “EV (early) reporter expression” value was “unaffected”, the “IV (intermediate) reporter expression” value was “only reached half-maximal levels” and the “reduction of maximum LV (late) reporter fluorescence” value was “approximately 85%”. Also, in data set [11], the “EV reporter mRNA accumulation” value is “unaffected”, the “reduction of peak IV reporter mRNA” value worked out at 41% and the “reduction of peak LV reporter mRNA” value worked out at 73%. The viral yield reduction in data set [12] is 2.5 log. Moreover, the “viral spread after low MOI infection” value in [13] was “limits viral spread after low MOI infection”. Further, in data set [14], the viral yield reduction was 4.0 log. Moreover, in data set [15], the “Venus DNA copies/c.e.” value is on record as 529 copies/c.e and the “viral DNA replication” value is reported as “occurred normally”.
Regarding `CC(=O)C1=C2C=C(C)CCN2C(=O)NC1c1ccccc1` (centres unmarked) [Compound 3b, 4-acetyl-6-methyl-3-phenyl-2,3,7,8-tetrahydro-1H-pyrido[1,2-c]pyrimidin-1-one], the “antiviral activity compared with CMLDBU6128” value in data set [16] is “demonstrated antiviral activity but were significantly less active than CMLDBU6 128”.
Molecule `COC(=O)C1=C2C=C([Si](C)(C)C)CCN2C(=O)NC1c1ccccc1` (centres unmarked) [Compound 4c, methyl 1-oxo-3-phenyl-6-(trimethylsilyl)-2,3,7,8-tetrahydro-1Hpyrido[1,2-c]pyrimidine-4-carboxylate] showed a melting point of 169 to 172 °C.
`O=C(NN1C(=O)[C@@H]2[C@@H]3C=C[C@@H]([C@H]4C[C@@H]34)[C@@H]2C1=O)c1ccc(C(F)(F)F)cc1` [ST-246]: in data set [1], the “virus yield reduction, single-cycle” value stood at 0.3 log.

As a reminder, the IC50 is the midpoint of a concentration-inhibition curve. The IC90 is the concentration needed for an effect of 90%. Broadly, the melting point is the temperature of the solid-liquid transition.
